According to US10000521B2 (priority 2013, dated 2018):

Key:
[1] = test system: HCV replicon; experiment: IC50 assay with HCV luciferase replicon cell-line; format: cell-based; settings: Hepatitis C virus, Huh-7; Huh7 cell line containing HCV replicon with luciferase reporter, 48 h
Excerpt: Plating Cells: The cells used in these assays were a liver-derived Huh7 cell line containing an HCV replicon bearing a luciferase reporter gene. The Huh7 cell-line can be obtained from various sources including the Japanese Collection of Research Bioresources (JCRB), Osaka, Japan. The Huh7 cell line containing an HCV replicon bearing a luciferase reporter gene can be prepared essentially as described by Vrolijk J M, et al. (J Virol Methods. (2003) 110(2):201-9). Cells were passaged when they reached about 70% confluency.
These 0.5 mM dilutions were then used to further serially dilute the compounds in DMEM+2% FBS+0.5% DMSO to keep the concentration of DMSO in each condition identical.
The Glo Lysis Buffer and the Bright Glow reagent was allowed to warm to room temperature for about 30 min in the dark. […] The media was removed from cells, and the cells were gently washed with about 100 μL of phosphate buffered saline (PBS). […] It should be noted that luciferin has a half-life of approximately 30 min at room temperature after it is added to the plate. […] The data was saved and used to calculate the percent inhibition of luciferase activity at each drug concentration. […] Curve equation: (m1−m2)/(1+(x/m3)^m4); m1=100; m2=0.01; m3=0.01; m4=0.01; the equation is: […]

[2] = test system: Huh7 cells; experiment: TC50 MTS cell viability assay with Huh7 cells (48 h); format: cell-based; settings: Homo sapiens, Huh-7
Excerpt: Plating Cells: Huh7 cells (a hepatocellular carcinoma cell-line; these cells can be obtained from the Japanese Collection of Research Bioresources (JCRB), Osaka, Japan) were used to determine the TC50 for representative compounds of the present invention. Briefly, Huh7 cells were passaged when they reached about 70% confluency. The cells were counted using a hemocytometer following dilution of the cells to about 0.5×10^5 cells per mL in DMEM with 10% fetal bovine serum (FBS). The cells were plated in a clear 96-well plate (about 5,000 cells in 100 μL per well). The cells were allowed to attach for about 24 hours at 37° C.
Treating of the cells: The DMEM media without phenol red containing 2% FBS was pre-warmed to 37° C. […] Following dilution, the final DMSO concentration was about 0.5% (v/v). […] The plates were then returned to the incubator and incubated with the cells for 48 h at 37° C.
(§1) The 96-well plate with cells incubated with test compound was removed from the 37° C. incubator. The appropriate amounts of the MTS and PMS reagents were removed from the kit and mixed well. The reagents were maintained in the dark due to their light sensitivity. […] The solutions were mixed completely in the wells prior to each reading.

[3] = Stability test at different pH conditions (HPLC); format: physicochemical
Protocol: HPLC analysis: 100 μl of the incubated solution was loaded onto a Vydac C18 analytical column 4.6/250, and the mobile phase run at 1 mL/min water with the following procedures: a. Inject 100 μl the incubated solution; b. Water for 5 minutes at 1 ml/min; c. 0-100% acetonitrile over 30 minutes; d. Back to 100% water.
Analysis: Standard HPLC analysis software was used to quantitate the area under each peak. Degradation peaks were quantitated as a percentage of the peak of the same amount of control sample (no heat treatment).

[4] = test system: Huh7; experiment: TC50 assay in different human cell lines (96 h), Huh7; format: cell-based; settings: Huh-7, about 96 h, MTS assay
Protocol: as §1
(§2) Plating Cells: Huh7, HEPG2, HEK293, MCF-7, or BxPC3 cells (which can be obtained from American Type Culture Collection, ATCC) were passaged when they were about 70% confluent. […] The cells following passaging were allowed to attach for about 24 hours at 37° C.
(§3) The plates were then returned to the incubator, and cells incubated for about 96 h at 37° C.
(§4) MTS Assay: Assay was carried out as described above.

[5] = test system: HEPG2; experiment: TC50 assay in different human cell lines (96 h), HEPG2; format: cell-based; settings: about 96 h, MTS assay
Protocol: as §1, §2, §3, §4

[6] = TC50 assay in different human cell lines (96 h), HEK293; format: cell-based; settings: HEK293 cells, about 96 h, MTS assay
Protocol: as §1, §2, §3, §4

[7] = test system: MCF-7; experiment: TC50 assay in different human cell lines (96 h), MCF-7; format: cell-based; settings: MCF7, about 96 h, MTS assay
Protocol: as §1, §2, §3, §4

[8] = test system: BxPC3; experiment: TC50 assay in different human cell lines (96 h), BxPC3; format: cell-based; settings: BXPC-3, about 96 h, MTS assay
Protocol: as §1, §2, §3, §4

[9] = test system: PK9 cells; experiment: TC50 assay with inhibition of ENT1, PK9 cells; format: cell-based; settings: Homo sapiens, PK9, 48 h, PK9 cells (48 h)
Protocol: Plating Cells: Huh7 cells or PK9 cells were seeded in 96-well plates at a density of 5,000 cells/well or 2,500 cells/well, respectively, and the plates were incubated at 37° C. for 24 h to allow for cell attachment.
Treatment with equilibrative nucleoside transporter 1 (ENT1) Inhibitor: The media was then removed from the plates and replaced with media containing 2% FBS, 0.5% DMSO, and either 10 μM dipyramidole or 10 μM S-(4-nitrobenzyl)-6-thioinosine (NBTI).
Treating with Control & Compound 1: After incubation with the ENT1 inhibitor, the cells were treated with each compound at final concentrations ranging from 500 μM to 0 μM in triplicate in media containing 2% FBS, 0.5% DMSO, and either 10 μM dipyridamole or 10 μM NBTI.

[10] = test system: PK9 cells; experiment: TC50 assay, effect of deficient deoxycytidine kinase activity, PK9 cells; format: cell-based; settings: Homo sapiens, 48 h, read-out: TC50 (μM), 48 h treatment
Protocol: (§5) Plating Cells: PK9 or RPK9 cells were seeded in 96-well plates at a density of 2,500 cells/well or 2,500 cells/well, respectively, and the plates were incubated at 37° C. for 24 h to allow for cell attachment.
(§6) Treating with Control & Compound 1: The cells were treated with each compound at final concentrations ranging from 500 μM to 0 μM in triplicate in media containing 2% FBS and 0.5% DMSO.
(§7) The RPK9 cells are described in Saiki, T., et al. (2012) Biochim. Biophys. Res. Commun. 421, 98-104).

[11] = test system: RPK9 cells; experiment: cells; settings: Homo sapiens, 48 h, read-out: TC50 (μM), 48 h treatment
Protocol: as §5, §6, §7

[12] = In vivo pharmacokinetic assessment (LC-MS/MS, plasma and liver); settings: mice, oral, plasma and liver samples
Protocol: All pharmacokinetic studies were performed with CD-1 ICR mice (female, 4-6 week old; 20-30 gram body weight), and three mice were used at each dose level and at each time point for each compound tested. […] Tetrahydrouridine (THU) was immediately added to plasma samples at a final concentration of 25 μg/mL to prevent deamination of dFdC after collection, and the samples were subsequently flash-frozen and stored at −80° C. until analysis. Approximately 200-300 mg of each mouse liver was dissected and homogenized in 150 μL of phosphate buffered saline (PBS) containing 25 μg/mL THU, resulting in 2 mg liver/μL saline homogenate. These liver homogenates were also flash-frozen and stored at −80° C. until analysis. Equivalent amounts of blood plasma and liver tissue were also collected from untreated mice and used to prepare calibration standards and quality controls. An LC-MS/MS assay was utilized to simultaneously quantify the concentrations of compound 1, dFdC and dFdU in each of the plasma and liver samples.

O=C(Nc1ccn([C@@H]2O[C@H](CO)C(O)C2(F)F)c(=O)n1)c1ccc2c(c1)OC(F)(F)O2 (some centres unmarked) [Compound 7]
IC50 [1]: 0.046 ± 0.027 µM
CC50 [2]: 188 ± 50 µM

O=C(Nc1ccn(C2O[C@H](CO)[C@@H](O)C2(F)F)c(=O)n1)c1ccc2c(c1)OCCO2 (stereo partly drawn) [Compound 2, N-(1-((4R,5R)-3,3-difluoro-4-hydroxy-5-(hydroxymethyl)tetrahydrofuran-2-yl)-2-oxo-1,2-dihydropyrimidin-4-yl)-2,3-dihydrobenzo[b][1,4]dioxine-6-carboxamide]
IC50 [1]: 0.127 ± 0.009 µM
CC50 [2]: 855 ± 166 µM
Compound remaining (%) ([3]; Pretreatment): 100%
Compound remaining (%) ([3]; pH 1, 40° C., 4 h): 71%
Compound remaining (%) ([3]; pH 2, 40° C., 4 h): 100%
Compound remaining (%) ([3]; pH 4, 40° C., 4 h): 100%
Compound remaining (%) ([3]; pH 6, 40° C., 4 h): 100%
Compound remaining (%) ([3]; pH 8, 40° C., 4 h): 100%
CC50 [4]: 3.34 µM
CC50 [5]: 1.13 µM
CC50 at 96 h [6]: 5.61 µM
CC50 [7]: 1.44 µM
CC50 [8]: 1.15 µM

Cc1cc2c(cc1C(=O)Nc1ccn([C@@H]3O[C@H](CO)C(O)C3(F)F)c(=O)n1)OCCO2 (some centres unmarked) [Compound 8]
IC50 [1]: 1.69 ± 1.06 µM
CC50 [2]: 626 ± 191 µM

O=C(Nc1ccn(C2O[C@H](CO)[C@@H](O)C2(F)F)c(=O)n1)c1cc2c(cc1[N+](=O)[O-])OCO2 (stereo in doubt) [Compound 9]
IC50 [1]: 0.047 ± 0.004 µM
CC50 [2]: > 500 µM

CC1(C)Cc2ccc(C(=O)Nc3ccn([C@@H]4O[C@H](CO)C(O)C4(F)F)c(=O)n3)cc2O1 (some centres unmarked) [Compound 4]
IC50 [1]: 0.177 ± 0.045 µM
CC50 [2]: 1160 ± 204 µM

Nc1ccn([C@@H]2O[C@H](CO)[C@@H](O)C2(F)F)c(=O)n1 [Gem, 4-amino-1-((2R,4R,5R)-3,3-difluoro-4-hydroxy-5-(hydroxymethyl)tetrahydrofuran-2-yl)pyrimidin-2(1H)-one, reference compound]
IC50 [1]: 0.058 ± 0.006 µM
CC50 ([9]; 10 μM NBTI): 1.92 ± 0.78 µM
CC50 ([9]; 10 μM dipyridamole): 193 ± 20 µM
CC50 ([9]; ENT1 inhibitor: None): 0.095 ± 0.035 µM
CC50 [10]: 0.095 ± 0.035 µM
CC50 [11]: > 500 µM
CC50 [4]: 3.41 µM
CC50 [5]: 0.311 µM
CC50 [7]: 0.067 µM
CC50 [8]: 0.0029 µM
first-pass metabolism to inactive metabolite dFdU [12]: extensive first-pass metabolism

O=C(Nc1ccn([C@@H]2O[C@H](CO)C(O)C2(F)F)c(=O)n1)c1c(Br)ccc2c1OCO2 (some centres unmarked) [Compound 6]
IC50 [1]: 0.34 ± 0.045 µM
CC50 [2]: 2210 ± 821 µM

O=C(Nc1ccn([C@@H]2O[C@H](CO)C(O)C2(F)F)c(=O)n1)c1ccc2c(c1)CCO2 (some centres unmarked) [Compound 5]
IC50 [1]: 0.145 ± 0.017 µM
CC50 [2]: 954 ± 247 µM

O=C(Nc1ccn([C@@H]2O[C@H](CO)C(O)C2(F)F)c(=O)n1)c1ccc2c(c1)OCCCO2 (some centres unmarked) [Compound 3]
IC50 [1]: 0.092 ± 0.008 µM
CC50 [2]: 881 ± 287 µM
